Measured values published in PMC9527238, “Glutamate and GABAA receptor crosstalk mediates homeostatic regulation of neuronal excitation in the mammalian brain” (Signal Transduction and Targeted Therapy, 2022).
Read-outs that look alike come from different tables or passages of the source.

Key:
rat α1β2 GABAARs = target: T1, rat α1β2 GABAARs (Rattus norvegicus, UniProt P62813+P63138); assay: Whole-cell patch clamp of GABA-evoked currents, HEK293 cells expressing α1β2; format: cell-based
T1 construct: expressed in transfected cells; host or cells: HEK293
From the text: (§1) Co-expression of the α and β subunits is the minimum requirement for a functional recombinant GABAAR expressed in a heterologous cell line such as HEK293, while co-expression of the α, β and γ subunits is required for the recombinant receptor with a full pharmacological profile.[2] We therefore transiently expressed either rat α1β2 or α1β2γ2 subunits in HEK293 cells.
HEK293 cells were transiently transfected with rat GABAAR α1/β2 (a–e) or α1/β2/γ2 (f) subunits. Whole-cell voltage-clamp recordings were performed with a chloride-based intracellular recording solution at a holding membrane potential of −60 mV.
(§2) HEK293 cells were cultured in DMEM (Invitrogen) supplemented with 10% fetal bovine serum. Cells were grown to 40–60% confluence and transiently transfected using Lipofectamine 2000 (Invitrogen) with 1:0.5–1 plasmid/lipid ratio. Cells were transfected with a pBK-CMV expression vector containing a rat recombinant GABAAR α, β or γ subunits. Co-transections were done with a plasmid ratio of 1:1 αβ and 2:2:1 for αβγ subunit combinations, respectively. pcDNA3.1-GFP was also co-transfected along with GABAAR subunits as a transfected marker in order to facilitate the visualization of the transfected cells during electrophysiological experiments. Cells were re-plated on glass coverslips after 15–20 h transfection and were cultured for an additional 15–24 h before whole-cell patch-clamp recordings.
(§3) Whole-cell patch-clamp recordings were performed under voltage-clamp mode using an Axopatch 200B or 1D patch-clamp amplifier (Molecular Devices) on HEK293 cells and cultured neurons. Whole-cell currents were recorded at a holding potential of −60 mV, and signals were filtered at 2 kHz, digitized at 10 kHz (Digidata 1322 A). Recording pipettes (3–5 MΩ) were filled with the intracellular solution that contained (mM): CsCl 140, HEPES 10, Mg-ATP 4, QX-314 5, pH 7.20; osmolarity, 290–295 mOsm. BAPTA (10 mM) was added in the intracellular solution. The coverslips were continuously superfused with the extracellular solution containing (mM): NaCl 140, KCl 5.4, HEPES 10, MgCl2 1.0, CaCl2 1.3, glucose 20, pH 7.4; osmolarity, 305–315 mOsm. […] Dose–response curves were created by fitting data to Hill equation: I = Imax/[1 + (EC50/[A])^n], where I is the current, Imax is the maximum current, [A] is a given concentration of agonist, n is the Hill coefficient. […] All experiments were performed at room temperature.

rat α1β2γ2 GABAARs = target: T2, rat α1β2γ2 GABAARs (Rattus norvegicus, UniProt P62813+P63138); assay: Whole-cell patch clamp of GABA-evoked currents, HEK293 cells expressing wild-type α1β2γ2; format: cell-based
T2 construct: expressed in transfected cells; host or cells: HEK293
Description: as §1, §2, §3

[1] = target: T3, GABAAR-mediated currents, β2E181G KI mice (Mus musculus, UniProt P63137, E206G); assay: Whole-cell recording of CA1 neurons, hippocampal slices of homozygous β2E181G KI mice; format: cell-based; details: AP5 50 µM; homozygous KI slices
T3 construct: from tissue; host or cells: acute hippocampal slices of homozygous β2E181G knock-in mice (C57BL/6J), CA1 neurons
Description: (§4) We next determined if glutamate-mediated allosteric potentiation of GABAAR function was impaired in hippocampal slices acutely prepared from postnatal 90-day-old KI mice. Whole-cell recordings of CA1 neurons were performed under voltage clamp configuration at a holding potential of −60 mV.
(§5) Mice were deeply anesthetized with urethane (1.5 g/kg, i.p.) and transcardially perfused with ice cold sucrose hypertonic cutting solution (in mM: KCl 3.0, NaH2PO4.H2O 1.25, NaHCO3 26, Na-vitamin C 0.4, Na-lactate 2.0, Na-pyruvate 2.0, D-glucose 10.0, Sucrose 220, CaCl2 0.1, MgCl2 2, MgSO4 4.0, pH 7.4, 290–300 mOsm/l) prior to decapitation as described previously.[47] After decapitation, the brain was rapidly removed and transferred to the ice cold cutting solution bubbled with 95% O2 and 5% CO2, and acute coronal brain slices (400 μm) were prepared on a Leica vibratome (VT1200S, Germany). All brain slices were placed into a standard artificial cerebral spinal fluid (ACSF) (in mM: NaCl 124, KCl 2.8, NaH2PO4.H2O 1.25, NaHCO3 26, Na-vitamin C 0.4, Na-lactate 2.0, Na-pyruvate 2.0, D-glucose 10.0, CaCl2 2, MgSO4 1.2, pH 7.4, 290–300 mOsm/l) incubated at 35 °C for 2 h prior to recording. Field excitatory postsynaptic potential (fEPSP) recordings were performed under current-clamp mode using HEKA EPC10 patch-clamp amplifier (HEKA Electronic, Lambrecht/Pfalz, Germany). […]

native GABAARs = assay: GABA-evoked whole-cell currents in cultured hippocampal neurons; format: cell-based, rat
Description: (§6) Cultured hippocampal neurons were prepared from the brains of D18 fetal Wister rats. Tissues were digested with a 0.25% trypsin solution (Invitrogen) for 25 min at 37 °C, and then mechanically dissociated using a fire-polished Pasteur pipette. Next, the cell suspension was centrifuged at 2500 × g for 50 s and the cell pellets were resuspended in DMEM containing 10% Fetal Bovine Serum (FBS; Sigma-Aldrich). Cells were seeded on poly-D-lysine-coated 24-well coverslips at a density of 2.5 × 10^5 cells/well. Cultures were maintained in a humidified incubator with 5% CO2 at 37 °C. After 24 h, plating medium was changed to Neurobasal medium supplemented with B-27 supplement and L-glutamine, and the media changed twice weekly thereafter. Cultured neurons were used for electrophysiological recordings between 10–14 days after plating.
as §3

extrasynaptic GABAARs = assay: GABAAR-mediated tonic currents in cultured hippocampal neurons; format: cell-based, rat; details: prior addition of AP5 200 μM; bicuculline 10 μM
Description: (§7) GABAAR-mediated inhibitory processes in the CNS include phasic and tonic inhibitions. The phasic inhibition is primarily mediated by the activation of postsynaptic GABAARs and can be evaluated by recording miniature inhibitory postsynaptic currents (mIPSCs; Fig. 2c).
as §6, with “Cultured neurons were used for electrophysiological recordings between 10–14 days after plating.” left out
(§8) Whole-cell patch-clamp recordings were performed under voltage-clamp mode using an Axopatch 200B or 1D patch-clamp amplifier (Molecular Devices) on HEK293 cells and cultured neurons. Whole-cell currents were recorded at a holding potential of −60 mV, and signals were filtered at 2 kHz, digitized at 10 kHz (Digidata 1322 A). […]

[2] = tested on: GABAAR-mediated currents, WT mice; assay: Whole-cell recording of CA1 neurons, hippocampal slices of WT mice; format: cell-based, mouse; details: AP5 50 µM
Description: as §4, §5

postsynaptic GABAARs = assay: mIPSCs in cultured hippocampal neurons; format: cell-based, rat; details: AP5 200 μM; TTX 0.5 μM, CNQX 10 μM
Description: as §7
as §6, with “Cultured neurons were used for electrophysiological recordings between 10–14 days after plating.” left out
as §8

α1β2 GABAARs = target: T4, α1β2 GABAARs (Rattus norvegicus, UniProt P62813+P63138); assay: [3H]glutamate binding assay, plasma membranes of HEK293 cells overexpressing α1 and β2
T4 construct: expressed in transfected cells; host or cells: HEK293
Description: For membrane preparation, transfected or non-transfected HEK293 cells were washed twice with cold PBS and harvested by scraping into 5 ml cold PBS. Cells were then centrifuged at 1200 × g for 12 min at 4 °C and medium was removed. The washing procedure was repeated twice. Then the cell pellet was re-suspended into 1 ml of 50 mM Tris-HCl buffer (pH 7.4, with protease inhibitor) and homogenized using syringes with 18-G, 21-G and 23-G needles.
To separate the membrane, the homogenate were centrifuged for 20 min at 20,000 × g at 4 °C. Then the pellet was re-suspended into 1 ml of 50 mM Tris-HCl buffer, pH 7.4 and centrifuged again. After repeating this procedure for one more time, the pellet was re-suspended into 1 ml of 50 mM Tris-HCl buffer, pH 7.4 and the protein concentration was measured.
To conduct the binding assay, 100 µg membrane enriched preparation was incubated with 40 nM [3H]-Glutamate in a total volume of 0.5 ml in 50 mM Tris-HCl buffer, pH 7.4 for 1 h on ice. […] Then the reaction was terminated by quickly filtering the solution on Whatman filter paper and washing by 3.5 ml Tris-HCl buffer. Radioactivity was measured in a Beckman liquid scintillation counter.

NMDA receptors = assay: NMDA receptor blockade in cultured hippocampal neurons; format: cell-based, rat; details: MK-801 10 μM co-applied with NMDA 50 μM through the bath for 3 min
[3] = Kainic acid-induced seizure; format: in vivo, mouse; details: 20 mg/kg i.p.
Description: To test the allosteric potentiation of GABAARs by presynaptically released glutamate under certain physiological conditions, we delivered five trains of four pulses of theta-burst stimulation to increase endogenous glutamate released from the presynaptic glutamatergic terminals, and compared its effect on the pharmacologically isolated eIPSCs (following blockade of both AMPAR and NMDAR-mediated EPSCs) in WT and KI mice.
Kainic acid (KA) was dissolved in sterile saline at the concentration of 20 mg/ml. KA (20 mg/kg, i.p.) or same volume of saline as vehicle control was administered by intraperitoneal injection to induce seizures. Diazepam (20 mg/kg, s.c., obtained from Children’s Hospital of Chongqing Medical University) was injected 30 min before the injection of KA. […] All experiments were performed in accordance with approved institutional animal care guidelines.

Cc1onc(O)c1CC(N)C(=O)O (stereo not drawn) [AMPA, α-amino-3-hydroxyl-5-methyl-4-isoxazole-propionate]
GABA-mediated currents in presence of ligand, compared with currents induced by GABA alone (rat α1β2 GABAARs): 339.2 ± 38.0%
GABA currents in presence of ligand, compared with GABA alone (rat α1β2γ2 GABAARs): 165.8 ± 6.2%

N[C@H](CCCP(=O)(O)O)C(=O)O [AP5, D-2-amino-5-phosphonovaleric acid]
GABA-evoked currents relative to baseline [1]: 104.6 ± 12.7%
GABA-mediated currents in presence of ligand, compared with currents induced by GABA alone (rat α1β2 GABAARs; ligand 100 μM, GABA 1 μM): 254.9 ± 33.0%
amplitude of GABA currents, % of the control (native GABAARs; AP5 100 μM bath, GABA 0.5 μM, TTX and CNQX present): 157.7 ± 9.1%
reversal potential of GABA currents (I-V curve) (native GABAARs; AP5 200 µM, GABA 10 μM): without altering the reversal potential
potentiation of GABA currents after NMDA receptor blockade (native GABAARs; after MK-801 10 μM + NMDA 50 μM for 3 min, AP5 200 μM, GABA 10 μM (Fig. S1a)): reversibly potentiated GABA currents
EC50 (native GABAARs; read-out: EC50 of AP5 enhancement of GABA currents, GABA 0.5 μM): 150 ± 27 µM
tonic current revealed by bicuculline (extrasynaptic GABAARs): 17.28 ± 2.80 pA
GABA-evoked currents relative to baseline [2]: 193.5 ± 27.0%
mIPSC amplitude (postsynaptic GABAARs): 36.6 ± 3.6 pA
mIPSC frequency (postsynaptic GABAARs): 0.90 ± 0.29 Hz
[3H]glutamate binding activity in presence of competitor (α1β2 GABAARs; 40 nM [3H]glutamate + 0.4 mM non-radiolabeled competitor): 240.8 ± 36.8 CPM
GABA currents in presence of ligand, compared with GABA alone (rat α1β2γ2 GABAARs; ligand 100 μM each, GABA 1 μM): 173.3 ± 3.7%

N#Cc1cc2[nH]c(=O)c(=O)[nH]c2cc1[N+](=O)[O-] [CNQX, 6-cyano-7-nitroquinoxaline-2,3-dione]
GABA evoked currents in presence of ligand, compared with GABA alone (rat α1β2 GABAARs; CNQX 10 μM, GABA 1 μM): 107.3 ± 6.5%
effect on GABA-evoked currents (rat α1β2 GABAARs; CNQX 1 mM, data not shown): did not affect GABA-evoked currents
GABA currents in presence of ligand, compared with GABA alone (rat α1β2γ2 GABAARs; CNQX, concentration not given, GABA 1 μM): 105.6 ± 6.5%

[^3H]glutamate
[3H]glutamate binding activity (α1β2 GABAARs; 40 nM [3H]glutamate only, 100 µg membrane, 1 h on ice): 938.2 ± 82.7 CPM

C[C@]12N[C@H](Cc3ccccc31)c1ccccc12 [MK-801]
effect on GABA currents (rat α1β2 GABAARs; MK-801, concentration not given, data not shown): did not affect GABA currents
NMDA receptor blockade (NMDA receptors): complete and long-lasting NMDA receptor blockade

C=C(C)[C@H]1CN[C@H](C(=O)O)[C@H]1CC(=O)O [kainic acid]
GABA-mediated currents in presence of ligand, compared with currents induced by GABA alone (rat α1β2 GABAARs): 388.2 ± 61.0%
latency of kainic acid-induced seizure activity ([3]; WT mice): 189.6 ± 15.2 s
latency of kainic acid-induced seizure activity ([3]; β2E181G KI mice): 161.0 ± 4.0 s
GABA currents in presence of ligand, compared with GABA alone (rat α1β2γ2 GABAARs): 188.7 ± 5.5%

CN[C@H](CC(=O)O)C(=O)O [NMDA, N-methyl-D-aspartate]
GABA-mediated currents in presence of ligand, compared with currents induced by GABA alone (rat α1β2 GABAARs): 267.6%
GABA currents in presence of ligand, compared with GABA alone (rat α1β2γ2 GABAARs): 171.7 ± 5.4%

N[C@H](C(=O)O)[C@@H](OCc1ccccc1)C(=O)O [TBOA, threo-β-Benzyloxyaspartic acid]
GABA-mediated currents in presence of ligand, compared with currents induced by GABA alone (rat α1β2 GABAARs; ligand 100 μM, GABA 1 μM): 202.8 ± 18.3%
GABA currents in presence of ligand, compared with GABA alone (rat α1β2γ2 GABAARs; ligand 100 μM each, GABA 1 μM): 159.9 ± 7.8%
